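1) Cells in 96-well plates. 2) Compound, 48 h, 5 concentrations. 3) Linear interpolation between surrounding doses. 4) Unreached endpoint = highest concentration. GI50 is the concentration that inhibits growth by half.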 Activity calls are given as the source filed them. Rule as the data show it: active = GI50 up to about 1.1 µM and inactive = higher.
Experiments:
Experiment in all cases: inhibition of tumour cell growth, NCI panel, 48 h
HOP-62 = test system: HOP-62
OVCAR-4 = test system: OVCAR-4
OVCAR-3 = test system: OVCAR-3
ACHN = test system: ACHN
HOP-92 = test system: HOP-92
K562 = test system: K562
SF-539 = test system: SF-539
SNB-75 = test system: SNB-75
SR = test system: SR
RPMI-8226 = test system: RPMI-8226
SK-OV-3 = test system: SK-OV-3
MOLT-4 = test system: MOLT-4
HCT-116 = test system: HCT-116
DMS-114 = test system: DMS-114
U-251 = test system: U-251
Malme-3M = test system: Malme-3M
LXFL 529 = test system: LXFL 529
UACC-62 = test system: UACC-62
SK-MEL-28 = test system: SK-MEL-28
UACC-257 = test system: UACC-257
HL-60 = test system: HL-60
UO-31 = test system: UO-31
CCRF-CEM = test system: CCRF-CEM
M14 = test system: M14
KM-20L2 = test system: KM-20L2
COLO 205 = test system: COLO 205
KM12 = test system: KM12
SK-MEL-2 = test system: SK-MEL-2
IGROV-1 = test system: IGROV-1
RXF 393 = test system: RXF 393
SNB-19 = test system: SNB-19
NCI-H23 = test system: NCI-H23
HT-29 = test system: HT-29
M19-MEL = test system: M19-MEL
NCI-H522 = test system: NCI-H522
SF-268 = test system: SF-268
SNB-78 = test system: SNB-78
OVCAR-5 = test system: OVCAR-5
SF-295 = test system: SF-295
NCI-H460 = test system: NCI-H460
LOX IMVI = test system: LOX IMVI
786-0 = test system: 786-0
CAKI-1 = test system: CAKI-1
A549 = test system: A549
HCC 2998 = test system: HCC 2998
OVCAR-8 = test system: OVCAR-8
SW-620 = test system: SW-620
SK-MEL-5 = test system: SK-MEL-5
HCT-15 = test system: HCT-15
A498 = test system: A498
SN12C = test system: SN12C
TK-10 = test system: TK-10
NCI-H226 = test system: NCI-H226
DMS-273 = test system: DMS-273
DLD-1 = test system: DLD-1

With `CC1=C(C2=C(C)C(=O)c3c(c(C=O)c(O)c(O)c3C(C)C)C2=O)C(=O)c2c(C=O)c(O)c(O)c(C(C)C)c2C1=O` [GOSSYPOLONE] the GI50 (HOP-62) was 3640 nM (inactive), the GI50 (OVCAR-4) was 3050 nM (inactive) and the GI50 (OVCAR-3) was 2310 nM (inactive). For the same compound, the GI50 (ACHN) was 2960 nM (inactive), the GI50 (HOP-92) was 2530 nM (inactive) and the GI50 (K562) was 2950 nM (inactive). For the same compound, the GI50 (SF-539) was 2690 nM (inactive), the GI50 (SNB-75) was 6590 nM (inactive) and the GI50 (SR) was 3970 nM (inactive). For the same compound, the GI50 (RPMI-8226) was 2290 nM (inactive), the GI50 (SK-OV-3) was 3210 nM (inactive) and the GI50 (MOLT-4) was 2740 nM (inactive). The GI50 (HCT-116) was 2360 nM (inactive), the GI50 (DMS-114) was 2230 nM (inactive) and the GI50 (U-251) was 2640 nM (inactive). The GI50 (Malme-3M) was 4330 nM (inactive), the GI50 (LXFL 529) was 3400 nM (inactive) and the GI50 (UACC-62) was 2770 nM (inactive). The GI50 (SK-MEL-28) was 4800 nM (inactive), the GI50 (UACC-257) was 3990 nM (inactive) and the GI50 (HL-60) was 2990 nM (inactive). For the same compound, the GI50 (UO-31) was 2170 nM (inactive), the GI50 (CCRF-CEM) was 1820 nM (inactive) and the GI50 (M14) was 1960 nM (inactive). For the same compound, the GI50 (KM-20L2) was 2210 nM (inactive), the GI50 (COLO 205) was 3180 nM (inactive) and the GI50 (KM12) was 2240 nM (inactive). The GI50 (SK-MEL-2) was 1750 nM (inactive), the GI50 (IGROV-1) was 2690 nM (inactive) and the GI50 (RXF 393) was 2340 nM (inactive). For the same compound, the GI50 (SNB-19) was 4440 nM (inactive), the GI50 (NCI-H23) was 3720 nM (inactive) and the GI50 (HT-29) was 2190 nM (inactive). The GI50 (M19-MEL) was 4320 nM (inactive), the GI50 (NCI-H522) was 4670 nM (inactive) and the GI50 (SF-268) was 2720 nM (inactive). The GI50 (SNB-78) was 2200 nM (inactive), the GI50 (OVCAR-5) was 1890 nM (inactive) and the GI50 (SF-295) was 1930 nM (inactive). For the same compound, the GI50 (NCI-H460) was 2980 nM (inactive).

`COc1cc2c(c(OC)c1OC)-c1ccc(SC)c(=O)cc1C(CC(=O)Oc1ccccc1F)C2` (centres undefined) was tested, and the GI50 (HOP-62) was 17.5 nM (active), the GI50 (OVCAR-4) was 1030 nM (active) and the GI50 (OVCAR-3) was 11.9 nM (active). The GI50 (ACHN) was 83.4 nM (active), the GI50 (HOP-92) was 37.7 nM (active) and the GI50 (K562) was < 7.5 nM (active). For the same compound, the GI50 (SF-539) was < 7.5 nM (active), the GI50 (LOX IMVI) was < 7.5 nM (active) and the GI50 (786-0) was < 7.5 nM (active). For the same compound, the GI50 (SNB-75) was > 7500 nM (inactive), the GI50 (SR) was < 7.5 nM (active) and the GI50 (CAKI-1) was 17.2 nM (active). The GI50 (RPMI-8226) was < 7.5 nM (active), the GI50 (SK-OV-3) was 20.2 nM (active) and the GI50 (MOLT-4) was 53.1 nM (active). The GI50 (HCT-116) was < 7.5 nM (active), the GI50 (DMS-114) was 15.2 nM (active) and the GI50 (A549) was 22.6 nM (active). The GI50 (U-251) was < 7.5 nM (active), the GI50 (Malme-3M) was 57.5 nM (active) and the GI50 (LXFL 529) was 26.6 nM (active). For the same compound, the GI50 (HCC 2998) was 30.7 nM (active), the GI50 (UACC-62) was < 7.5 nM (active) and the GI50 (SK-MEL-28) was 55 nM (active). The GI50 (HL-60) was < 7.5 nM (active), the GI50 (UO-31) was 127 nM (active) and the GI50 (CCRF-CEM) was 13.2 nM (active). For the same compound, the GI50 (M14) was 17.5 nM (active), the GI50 (OVCAR-8) was 32.8 nM (active) and the GI50 (KM-20L2) was 12.7 nM (active). The GI50 (COLO 205) was 13.6 nM (active), the GI50 (KM12) was < 7.5 nM (active) and the GI50 (SW-620) was 8.02 nM (active). For the same compound, the GI50 (SK-MEL-2) was 25.1 nM (active), the GI50 (SK-MEL-5) was 21.5 nM (active) and the GI50 (IGROV-1) was 164 nM (active). For the same compound, the GI50 (HCT-15) was 12.2 nM, the GI50 (RXF 393) was < 7.5 nM (active) and the GI50 (SNB-19) was 13.9 nM (active). The GI50 (NCI-H23) was 21.9 nM (active), the GI50 (A498) was 26.9 nM (active) and the GI50 (SN12C) was 19.3 nM (active). For the same compound, the GI50 (HT-29) was 8.41 nM (active), the GI50 (M19-MEL) was 21.8 nM (active) and the GI50 (TK-10) was > 7500 nM (inactive). For the same compound, the GI50 (NCI-H522) was 10.8 nM (active), the GI50 (NCI-H226) was 41.3 nM (active) and the GI50 (SF-268) was 36 nM (active). The GI50 (DMS-273) was 9.91 nM (active), the GI50 (SNB-78) was 20.6 nM (active) and the GI50 (DLD-1) was 19.6 nM (active). The GI50 (OVCAR-5) was 2940 nM (inactive), the GI50 (SF-295) was < 7.5 nM (active) and the GI50 (NCI-H460) was 10.3 nM (active).

Source: ChEMBL document CHEMBL1201862, “PubChem BioAssay data set” (2004)
